# Assay results reported in patent US20120245137A1 (Zalicus Pharmaceuticals Ltd., priority 2009, published 2012).
# What was measured:
# Type in all cases: cell-based
# [1] = target: human α1G T-type channels (Homo sapiens, UniProt O43497); experiment: T-type calcium channel block, whole cell patch clamp, α1G; conditions: HEK cells stably expressing human α1G; mainly non-inactivated protocol; values above 10,000 nM represented as 10000
# How it was run: (§1)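 Whole-cell voltage clamp on stably transfected HEK 293 lines carrying human α1H or α1G. Two voltage protocols used: non-inactivated pre-pulse for resting block, inactivated for voltage-dependent block; test agents perfused locally in external solution (0.1-0.01% DMSO) following ~10 min rest.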
# [2] = target: N-type calcium channel subunits (α1B, α2δ, and β3a) (Homo sapiens, UniProt Q00975); experiment: Block of Cav2.2 channel, whole cell voltage clamp, manual and PatchXpress; conditions: Table 5; table follows Assay Example 3 (whole cell voltage clamp / PatchXpress); assay not given
# How it was run: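 Percent block taken as current amplitude ratio with versus without compound, applied in rising doses; IC50 fitted where one cell received multiple doses. Protocol: 50 ms pulses to +20 mV at 0.067 Hz from […] or −90 mV holding; P/n leak subtraction, no junction-potential correction; manual and PatchXpress recordings.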
# [3] = target: human α1H T-type channels (Homo sapiens, UniProt O95180); experiment: T-type calcium channel block, whole cell patch clamp, α1H; conditions: HEK cells stably expressing human α1H; mainly non-inactivated protocol; values above 10,000 nM represented as 10000
# How it was run: as §1
# N-type calcium channel subunits (α1B, α2δ, and β3a), sequence (Q00975 whole entry): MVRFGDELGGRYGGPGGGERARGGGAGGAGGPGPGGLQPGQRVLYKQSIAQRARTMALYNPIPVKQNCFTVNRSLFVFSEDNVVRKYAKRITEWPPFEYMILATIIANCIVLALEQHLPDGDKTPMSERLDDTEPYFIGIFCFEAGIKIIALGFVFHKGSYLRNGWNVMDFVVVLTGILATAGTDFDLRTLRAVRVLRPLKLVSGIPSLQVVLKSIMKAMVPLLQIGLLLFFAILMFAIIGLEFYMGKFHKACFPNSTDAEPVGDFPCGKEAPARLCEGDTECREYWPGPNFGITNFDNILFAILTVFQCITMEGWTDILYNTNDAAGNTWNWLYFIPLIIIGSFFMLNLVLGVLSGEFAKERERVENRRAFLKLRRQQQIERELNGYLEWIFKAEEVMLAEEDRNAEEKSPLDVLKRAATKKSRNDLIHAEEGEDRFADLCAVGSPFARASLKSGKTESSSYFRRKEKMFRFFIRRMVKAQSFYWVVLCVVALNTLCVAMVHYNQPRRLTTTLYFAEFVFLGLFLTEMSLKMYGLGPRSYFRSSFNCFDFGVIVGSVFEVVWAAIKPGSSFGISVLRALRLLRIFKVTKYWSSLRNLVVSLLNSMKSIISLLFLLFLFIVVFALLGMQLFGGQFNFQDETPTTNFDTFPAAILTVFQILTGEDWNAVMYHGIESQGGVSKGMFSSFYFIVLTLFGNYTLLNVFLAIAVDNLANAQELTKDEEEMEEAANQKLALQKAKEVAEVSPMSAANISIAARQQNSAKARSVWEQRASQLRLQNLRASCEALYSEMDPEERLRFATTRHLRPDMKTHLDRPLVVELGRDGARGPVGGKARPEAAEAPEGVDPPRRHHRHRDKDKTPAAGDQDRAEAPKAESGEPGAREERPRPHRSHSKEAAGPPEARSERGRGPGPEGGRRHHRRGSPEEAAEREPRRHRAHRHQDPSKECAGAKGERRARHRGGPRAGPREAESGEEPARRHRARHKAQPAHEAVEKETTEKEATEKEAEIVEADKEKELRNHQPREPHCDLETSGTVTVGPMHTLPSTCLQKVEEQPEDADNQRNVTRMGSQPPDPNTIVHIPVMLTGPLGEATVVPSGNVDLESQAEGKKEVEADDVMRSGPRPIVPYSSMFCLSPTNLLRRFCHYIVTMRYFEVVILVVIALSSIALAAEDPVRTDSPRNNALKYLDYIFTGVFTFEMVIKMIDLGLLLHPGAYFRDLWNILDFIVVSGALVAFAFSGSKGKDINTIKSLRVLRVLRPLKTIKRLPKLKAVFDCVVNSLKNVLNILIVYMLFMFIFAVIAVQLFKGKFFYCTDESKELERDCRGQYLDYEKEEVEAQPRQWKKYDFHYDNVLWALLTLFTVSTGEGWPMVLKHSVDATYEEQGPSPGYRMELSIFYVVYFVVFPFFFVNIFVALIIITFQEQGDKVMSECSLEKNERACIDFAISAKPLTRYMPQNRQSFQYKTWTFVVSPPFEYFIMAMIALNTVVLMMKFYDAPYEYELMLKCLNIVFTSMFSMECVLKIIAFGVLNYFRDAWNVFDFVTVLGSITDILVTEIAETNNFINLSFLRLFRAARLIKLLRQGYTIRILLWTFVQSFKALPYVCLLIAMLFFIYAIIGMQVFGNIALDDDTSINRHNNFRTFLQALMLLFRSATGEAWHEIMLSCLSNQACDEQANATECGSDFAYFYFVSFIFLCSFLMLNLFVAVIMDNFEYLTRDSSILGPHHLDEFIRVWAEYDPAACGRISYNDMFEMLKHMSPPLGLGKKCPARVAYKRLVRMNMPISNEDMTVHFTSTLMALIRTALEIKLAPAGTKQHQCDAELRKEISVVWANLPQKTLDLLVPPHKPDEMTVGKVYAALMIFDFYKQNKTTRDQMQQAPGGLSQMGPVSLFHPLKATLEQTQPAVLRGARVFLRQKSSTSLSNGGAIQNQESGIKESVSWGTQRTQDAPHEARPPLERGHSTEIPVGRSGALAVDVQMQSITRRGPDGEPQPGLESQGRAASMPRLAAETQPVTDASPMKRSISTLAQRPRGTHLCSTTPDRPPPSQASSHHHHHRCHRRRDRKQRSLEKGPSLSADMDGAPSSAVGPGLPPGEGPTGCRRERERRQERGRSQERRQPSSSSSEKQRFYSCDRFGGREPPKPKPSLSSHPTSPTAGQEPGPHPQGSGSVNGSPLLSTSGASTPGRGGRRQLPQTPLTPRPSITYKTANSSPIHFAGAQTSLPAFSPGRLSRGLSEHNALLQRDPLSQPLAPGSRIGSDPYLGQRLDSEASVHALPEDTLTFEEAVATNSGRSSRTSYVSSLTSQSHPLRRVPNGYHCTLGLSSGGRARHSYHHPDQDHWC
# N-type calcium channel subunits (α1B, α2δ, and β3a), sequence (P54289 25-1103 partner): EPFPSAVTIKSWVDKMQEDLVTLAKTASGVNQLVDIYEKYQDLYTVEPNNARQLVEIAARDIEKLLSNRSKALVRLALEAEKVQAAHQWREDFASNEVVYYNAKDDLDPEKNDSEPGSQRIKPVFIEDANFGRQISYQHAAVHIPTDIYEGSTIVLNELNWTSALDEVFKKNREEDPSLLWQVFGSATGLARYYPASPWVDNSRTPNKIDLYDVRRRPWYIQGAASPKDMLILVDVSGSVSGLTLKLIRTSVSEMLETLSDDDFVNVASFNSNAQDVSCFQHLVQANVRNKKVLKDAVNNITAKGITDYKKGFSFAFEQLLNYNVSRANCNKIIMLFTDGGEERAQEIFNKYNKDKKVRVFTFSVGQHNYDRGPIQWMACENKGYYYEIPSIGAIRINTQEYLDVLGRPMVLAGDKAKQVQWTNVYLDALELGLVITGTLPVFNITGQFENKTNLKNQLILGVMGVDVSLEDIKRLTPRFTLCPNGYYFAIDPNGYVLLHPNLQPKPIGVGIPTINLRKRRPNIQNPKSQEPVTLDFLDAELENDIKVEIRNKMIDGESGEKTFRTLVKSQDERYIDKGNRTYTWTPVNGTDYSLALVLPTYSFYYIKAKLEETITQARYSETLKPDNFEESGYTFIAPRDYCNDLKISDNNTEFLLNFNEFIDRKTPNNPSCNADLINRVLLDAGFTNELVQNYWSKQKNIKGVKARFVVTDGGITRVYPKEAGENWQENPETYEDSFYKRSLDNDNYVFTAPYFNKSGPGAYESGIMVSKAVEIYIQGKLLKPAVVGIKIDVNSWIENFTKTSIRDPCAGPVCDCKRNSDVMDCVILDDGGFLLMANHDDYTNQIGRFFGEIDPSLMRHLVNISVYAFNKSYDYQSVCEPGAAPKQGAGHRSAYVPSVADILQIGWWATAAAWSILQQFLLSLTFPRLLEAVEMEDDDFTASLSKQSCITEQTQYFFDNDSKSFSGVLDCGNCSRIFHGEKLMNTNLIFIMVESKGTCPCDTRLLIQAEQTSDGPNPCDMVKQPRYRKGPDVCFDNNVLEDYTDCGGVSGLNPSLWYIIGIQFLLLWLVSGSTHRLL
# N-type calcium channel subunits (α1B, α2δ, and β3a), sequence (P54284 whole entry partner): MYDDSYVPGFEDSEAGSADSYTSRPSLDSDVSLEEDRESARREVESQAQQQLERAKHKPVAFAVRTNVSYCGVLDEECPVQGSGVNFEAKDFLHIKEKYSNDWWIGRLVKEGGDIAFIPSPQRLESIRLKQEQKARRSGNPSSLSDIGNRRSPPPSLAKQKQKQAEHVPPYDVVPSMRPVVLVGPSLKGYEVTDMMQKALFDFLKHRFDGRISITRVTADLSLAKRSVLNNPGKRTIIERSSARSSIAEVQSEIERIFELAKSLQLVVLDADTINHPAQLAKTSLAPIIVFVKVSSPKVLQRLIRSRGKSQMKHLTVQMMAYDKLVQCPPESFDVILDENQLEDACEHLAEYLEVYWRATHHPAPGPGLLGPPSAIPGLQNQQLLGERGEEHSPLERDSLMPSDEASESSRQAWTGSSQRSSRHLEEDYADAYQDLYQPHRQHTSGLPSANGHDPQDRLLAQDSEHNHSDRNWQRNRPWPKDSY
Structure (SMILES),IC50 [1] [nM],IC50 [2] [nM],IC50 [3] [nM]
"O=C(N[C@H]1CC[C@@](F)(S(=O)(=O)c2cccc(C(F)(F)F)c2)CC1)[C@H]1CC[C@@H](c2ccccc2)N1 [Compound 288, (2R,5S)-N-((1S,4S)-4-fluoro-4-(3-(trifluoromethyl)phenylsulfonyl)cyclohexyl)-5-phenylpyrrolidine-2-carboxamide]",> 10000,640,3260
"O=C(N[C@H]1CC[C@@](F)(S(=O)(=O)c2cccc(C(F)(F)F)c2)CC1)[C@@H]1C[C@@H](c2ccccc2)CN1 [Compound 285, (2S,4S)-N-((1S,4R)-4-fluoro-4-(3-(trifluoromethyl)phenylsulfonyl)cyclohexyl)-4-phenylpyrrolidine-2-carboxamide]",> 10000,360,1280
"CC(C)(C)NC(=O)CN[C@H]1CC[C@H](CS(=O)(=O)c2cccc(C(F)(F)F)c2)CC1 [Compound 114, N-tert-butyl-2-((1R,4R)-4-((3-(trifluoromethyl)phenylsulfonyl)methyl)cyclohexylamino)acetamide]",> 10000,510,> 10000
"O=C(N[C@H]1CC[C@H](CS(=O)(=O)c2cccc(C(F)(F)F)c2)CC1)c1ccc(F)c(C(F)(F)F)c1 [Compound 99, 4-fluoro-3-(trifluoromethyl)-N-((1R,4R)-4-((3-(trifluoromethyl)phenylsulfonyl)methyl)cyclohexyl)benzamide]",> 10000,3750,> 10000
"CS(=O)(=O)c1cc(C(F)(F)F)ccc1C(=O)N[C@H]1CC[C@@](F)(S(=O)(=O)c2cc(F)cc(C(F)(F)F)c2)CC1 [Compound 330, N-((1S,4S)-4-fluoro-4-(3-fluoro-5-(trifluoromethyl)phenylsulfonyl)cyclohexyl)-2-(methylsulfonyl)-4-(trifluoromethyl)benzamide]",8560,1020,930
"CN(C(=O)CN[C@H]1CC[C@H](S(=O)(=O)c2cccc(C(F)(F)F)c2)CC1)C(C)(C)C [Compound 70, N-tert-butyl-N-methyl-2-((1R,4R)-4-(3-(trifluoromethyl)phenylsulfonyl)cyclohexylamino)acetamide]",8810,1220,2580
"CC(C)(C(=O)N[C@H]1CC[C@@](F)(S(=O)(=O)c2cccc(C(F)(F)F)c2)CC1)S(=O)(=O)c1cccc(C(F)(F)F)c1 [Compound 291, N-((1S,4S)-4-fluoro-4-(3-(trifluoromethyl)phenylsulfonyl)cyclohexyl)-2-methyl-2-(3-(trifluoromethyl)phenylsulfonyl)propanamide]",> 10000,50,6060
"CC(C)(C)OC(=O)N[C@H]1CC[C@@H](S(=O)(=O)c2cccc(C(F)(F)F)c2)CC1 [Compound 96, tert-butyl(1S,4S)-4-(3-(trifluoromethyl)phenylsulfonyl) cyclohexylcarbamate]",> 10000,430,3820
"COc1ccc(C2(C(=O)N[C@H]3CC[C@@](F)(S(=O)(=O)c4cccc(C(F)(F)F)c4)CC3)CC2)cc1 [Compound 276, N-((1S,4S)-4-fluoro-4-(3-(trifluoromethyl)phenylsulfonyl)cyclohexyl)-1-(4-methoxyphenyl) cyclopropanecarboxamide]",> 10000,380,2300
"O=C(N[C@H]1CC[C@@H](S(=O)(=O)c2cc(F)cc(C(F)(F)F)c2)CC1)c1ccc(Cl)c(OC(F)(F)F)c1 [Compound 322, 4-chloro-N-((1S,4S)-4-(3-fluoro-5-(trifluoromethyl)phenylsulfonyl)cyclohexyl)-3-(trifluoromethoxy)benzamide]",3260,500,630
"CC(C)(C)NC(=O)CN[C@H]1CC[C@H](S(=O)(=O)c2cccc(C(F)(F)F)c2)CC1 [Compound 69, N-tert-butyl-2-((1R,4R)-4-(3-(trifluoromethyl)phenylsulfonyl)cyclohexylamino)acetamide]",> 10000,1650,> 10000
"Cn1nc(C(F)(F)F)cc1NC(=O)[C@H]1C[C@H](S(=O)(=O)c2cccc(C(F)(F)F)c2)C1 [Compound 407, (1R,3R)-N-(1-methyl-3-(trifluoromethyl)-1H-pyrazol-5-yl)-3-(3-(trifluoromethyl)phenylsulfonyl) cyclobutanecarboxamide]",> 10000,5630,1660

# The next compounds have a lower IC50 [1] than those just listed; values first:
IC50 [1] [nM],IC50 [2] [nM],IC50 [3] [nM],Structure (SMILES)
3060,390,2720,"CC1(S(=O)(=O)c2cccc(C(F)(F)F)c2)CCN(C(=O)CNC2CCCCC2)CC1 [Compound 18, 2-(cyclohexylamino)-l-(4-methyl-4-(3-(trifluoromethyl)phenylsulfonyl)piperidin-l-yl)ethanone]"
2570,590,1890,"O=C(N[C@H]1CC[C@@H](S(=O)(=O)c2cccc(C(F)(F)F)c2)CC1)c1cncc(C(F)(F)F)c1 [Compound 203, 5-(trifluoromethyl)-N-((1S,4S)-4-(3-(trifluoromethyl)phenylsulfonyl)cyclohexyl)nicotinamide]"
2460,470,540,"O=C(N[C@H]1CC[C@@](F)(S(=O)(=O)c2cccc(C(F)(F)F)c2)CC1)C1CCCC1 [Compound 277, N-((1S,4S)-4-fluoro-4-(3-(trifluoromethyl)phenylsulfonyl)cyclohexyl) cyclopentanecarboxamide]"
2450,410,940,"CC1(NC(=O)CN[C@H]2CC[C@](F)(S(=O)(=O)c3cccc(C(F)(F)F)c3)CC2)CCC1 [Compound 91, 2-((1R,4R)-4-fluoro-4-(3-(trifluoromethyl)phenylsulfonyl)cyclohexylamino)-N-(1-methylcyclobutyl)acetamide]"
2400,320,1330,"O=C(N[C@H]1CC[C@@](F)(S(=O)(=O)c2cc(F)cc(C(F)(F)F)c2)CC1)c1ccc(F)c(C(F)(F)F)c1 [Compound 325, 4-fluoro-N-((1S,4S)-4-fluoro-4-(3-fluoro-5-(trifluoromethyl)phenylsulfonyl)cyclohexyl)-3-(trifluoromethyl)benzamide]"
2250,2670,1390,"Cc1noc(C)c1S(=O)(=O)NC[C@H]1C[C@H](S(=O)(=O)c2cccc(C(F)(F)F)c2)C1 [Compound 422, 3,5-dimethyl-N-(((1R,3R)-3-(3-(trifluoromethyl)phenylsulfonyl)cyclobutyl)methyl)isoxazole-4-sulfonamide]"
1850,800,1480,"O=C(N[C@H]1CC[C@H](S(=O)(=O)c2cccc(C(F)(F)F)c2)CC1)c1ccc(F)c(C(F)(F)F)c1 [Compound 58, 4-fluoro-3-(trifluoromethyl)-N-((1R,4R)-4-(3-(trifluoromethyl)phenylsulfonyl)cyclohexyl)benzamide]"
1340,260,1130,CC1(CNC(=O)c2ccc(C(F)(F)F)cc2S(C)(=O)=O)CCC(S(=O)(=O)c2cccc(C(F)(F)F)c2)CC1 (stereo not drawn) [Compound 207]
1290,810,330,"CC(C)S(=O)(=O)c1cc(C(F)(F)F)cnc1C(=O)N[C@H]1C[C@H](S(=O)(=O)c2cccc(C(F)(F)F)c2)C1 [Compound 432, 3-(isopropylsulfonyl)-5-(trifluoromethyl)-N-((1R,3R)-3-(3-(trifluoromethyl)phenylsulfonyl)cyclobutyl) picolinamide]"
690,1060,1350,"CN(C(=O)c1ccc(C(F)(F)F)cc1S(C)(=O)=O)[C@H]1CC[C@@](F)(S(=O)(=O)c2cc(F)cc(C(F)(F)F)c2)CC1 [Compound 336, N-((1S,4S)-4-fluoro-4-(3-fluoro-5-(trifluoromethyl)phenylsulfonyl)cyclohexyl)-N-methyl-2-(methylsulfonyl)-4-(trifluoromethyl)benzamide]"
630,1450,270,"O=C(N[C@H]1C[C@H](CS(=O)(=O)c2cccc(C(F)(F)F)c2)C1)c1ccc(Cl)c(F)c1 [Compound 343, 4-chloro-3-fluoro-N-((1R,3R)-3-((3-(trifluoromethyl)phenylsulfonyl)methyl)cyclobutyl)benzamide]"
500,440,2690,"Cn1nc(C(F)(F)F)cc1C(=O)NC[C@H]1CC[C@@H](S(=O)(=O)c2cccc(C(F)(F)F)c2)CC1 [Compound 32, 1-methyl-3-(trifluoromethyl)-N-(((1S,4S)-4-(3-(trifluoromethyl)phenylsulfonyl)cyclohexyl)methyl)-1H-pyrazole-5-carboxamide]"
490,2370,270,"O=C(NC[C@H]1C[C@@H](S(=O)(=O)c2cccc(C(F)(F)F)c2)C1)c1ccnc(C(F)(F)F)c1 [Compound 386, 2-(trifluoromethyl)-N-(((1S,3S)-3-(3-(trifluoromethyl)phenylsulfonyl)cyclobutyl)methyl)isonicotinamide]"
430,290,940,"O=C(N[C@H]1CC[C@@H](S(=O)(=O)c2cccc(C(F)(F)F)c2)CC1)c1ccc(Cl)c(F)c1 [Compound 130, 4-chloro-3-fluoro-N-((1S,4S)-4-(3-(trifluoromethyl)phenylsulfonyl)cyclohexyl)benzamide]"
